Assay results taken from patent US7550469B2, “Heterocyclic amide derivatives and their use as dopamine D3 receptor ligands” (Aventis Pharmaceuticals Inc., priority 2001, dated 2009).
Where two headings read alike, the source gives them in different places.

Biological target: T1, cloned human dopamine D3 receptors (Homo sapiens, UniProt P35462)
T1 construct: expressed in transfected cells; membrane homogenate
Experiment: [N-Methyl-3H]Spiroperidol binding to cloned human dopamine D3 receptors (Protocol 1)
Description: [N-Methyl-^3H]Spiroperidol Binding to Cloned Human Dopamine D3 Receptors
This assay measures the in vitro activity of compounds on cloned human dopamine (D3) receptors and predicts the direct dopamine-blocking properties of putative neuropsychiatric agents at human dopamine D3 receptors.
The D3 gene was isolated from a human striatal cDNA library (Stratagene). The gene was sequenced and sub-cloned into the expression vector RC/RSV (Invitrogen). CHO (Chinese Hamster Ovary) cells were stably transfected with 10 μg of the D3/RSV plasmid using the DOTAP method from Boehringer Mannheim and 72 clones that were G418 resistant were isolated. Using mRNA and binding displacement data a single high expressing clone was identified. This clone was then grown in large batches for the purpose of developing a 96 well format assay.
• 1. One plate (10 cm) with approximately 2-3 million D3 cells per plate is incubated with 1 ml of Trypsin-EDTA at room temperature for ˜2 min or until cells have lifted off plates. Four ml of Ham's F12+10% Fetal Bovine Serum+1% Penicillin/Streptomycin+G418 (400 μg/ml) medium are added to resuspend cells and 1 ml of this is added to each large plate (15 cm) containing 19 ml of the-same medium as mentioned above. • 2. The 5 large plates are incubated at 37° C.+5% CO2 for ˜3 days or until the cells are confluent. • 3. After these plates are confluent, they are split into 10 large plates. Medium is aspirated off, 2 ml of Trypsin-EDTA are added to each plate and plates are incubated at RT for 2 min or until cells have lifted off the plate. Eight ml of the F12 medium (same medium as #1 above) are added to each plate (10 ml total) to resuspend the cells and 5 ml are transferred to the 2 new plates containing 15 ml of the F12 media. • 4. The 10 large plates are incubated at 37° C.+5% CO2 for ˜2 days or until the cells are confluent. • 5. The 10 large plates are split into 60 large plates (using Trypsin-EDTA as #3 except 4 ml of F12 medium are added to resuspend cells and 1 ml is aliquoted to 6 new plates containing 19 ml of F12 medium each). • 6. Plates are incubated at […]+5% CO2 for ˜3 days or until cell are confluent. • 7. The 60 large plates are then split into 60 roller bottles (100-150 million cells/bottle). Medium is aspirated off, 2 ml of Trypsin-EDTA are added to each plate and incubated at RT for ˜2 minutes or until cells have lifted off plates. Eight ml of F12 medium are added to each plate to resuspend cells and the entire 10 ml are added to 1 roller bottle containing 90 ml of the F12 medium. • 8. The 60 roller bottles are immediately placed on their sides and transferred to the roller bottle incubator. They are incubated at 37° C.+5% CO2 for ˜3-5 days. Cells are spun at 30-40% motor speed in the Forma incubator. • 9. Medium is poured off and cells are washed 2× in PBS. • 10. Cells are then scraped off in 20 ml of PBS and the bottles are rinsed again with 5 ml of PBS to remove any remaining cells. Cells are stored on ice before membrane preparation. • 11. The yield for 60 D3 roller bottles has varied from ˜260-500 mg. • Note: All tissue culture reagents are from Gibco-BRL. C. Membrane Preparation
The cells are harvested into 250 ml centrifuge tubes with 100 volumes of cold phosphate buffered saline (PBS) and spun down (1200×G for 10 min at 4° C.). The medium is removed and 100 ml PBS are added to each centrifuge tube, cells are resuspend and spun down again. The PBS is removed and the final pellet is homogenized in an appropriate volume of 10% DMSO with a polytron on ice at a medium setting.
1. 0.5M Tris Buffer, pH 7.7 • a) 44.4 g Tris HCl 26.5 g Tris Base q.s. to 1 Liter (0.5 M Tris buffer, pH 7.7 at 37° C.) • b) make a 1:10 dilution in distilled H2O (0.05 M. Tris buffer, pH 7.7) 2. Tris Buffer Containing Physiological Salts • a) Stock buffer • NaCl 7.014 g • KCl 0.372 g • CaCl2 0.222 g • MgCl2 0.204 g • q.s. To 100 ml with 0.5 M. Tris Buffer • b) Dilute 1:10 in distilled H2O […]

[1] = the 13th table, unit inferred, read-out: D3Ki
[2] = the 14th table, read-out: D3 Ki
[3] = the 21st table, read-out: D3 Ki
[4] = the 18th table, read-out: D3 Ki
[5] = the 22nd table, read-out: D3 Ki
[6] = the 19th table, read-out: D3 Ki
[7] = the 15th table, read-out: D3 Ki
[8] = the 17th table, read-out: D3 Ki
[9] = the 23rd table, read-out: D3 Ki

T1 sequence (P35462 whole entry): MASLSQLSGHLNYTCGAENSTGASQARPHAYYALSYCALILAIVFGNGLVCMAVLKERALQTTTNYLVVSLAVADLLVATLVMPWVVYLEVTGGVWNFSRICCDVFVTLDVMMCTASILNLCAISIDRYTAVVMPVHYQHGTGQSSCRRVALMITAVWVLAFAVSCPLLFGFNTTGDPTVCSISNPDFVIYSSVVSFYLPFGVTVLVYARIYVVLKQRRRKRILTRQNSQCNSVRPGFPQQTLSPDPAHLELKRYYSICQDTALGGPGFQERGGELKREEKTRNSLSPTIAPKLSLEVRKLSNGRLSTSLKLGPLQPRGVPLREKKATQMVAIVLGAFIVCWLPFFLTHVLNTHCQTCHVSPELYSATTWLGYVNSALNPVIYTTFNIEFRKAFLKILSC

With O=C(NCCCCN1CCCN(c2csc3cc(F)ccc23)CC1)c1ccc(C(F)(F)F)cc1 [S9818147] the Ki [1] was 0.0308 µM.
Molecule N#Cc1cccc(C(=O)NC/C=C/CN2CCN(c3csc4cc(C(F)(F)F)ccc34)CC2)c1 [compound 827721] has a Ki (read-out: D3K1) of 0.091 µM.
O=C(NCCCCCN1CCN(c2csc3cc(F)ccc23)CC1)c1ccc2ccccc2c1 [compound 826779] gave a Ki [2] of 0.000984 µM.
COc1cc(OC)cc(C(=O)NCCCCCCN2CCN(c3csc4cc(C(F)(F)F)ccc34)CC2)c1 [compound 826748] showed a Ki (read-out: D3K1) of 0.0049 µM and a Ki [2] of 0.0049 µM.
For O=C(NCCCCN1CCCN(c2csc3cc(F)ccc23)CC1)c1cccc(C(F)(F)F)c1 [compound 822155], the Ki [1] was 0.0108 µM.
For O=C(NCCCCCN1CCCN(c2csc3cc(F)ccc23)CC1)c1cc2ccccc2[nH]1 [S984504], the Ki [1] was 0.0171 µM.
In the case of COc1ccc2[nH]c(C(=O)NC[C@@H]3CCCC[C@H]3CN3CCN(c4csc5cc(C(F)(F)F)ccc45)CC3)cc2c1 [compound 826284], the Ki (read-out: D3K1) is reported as 0.077 µM.
Work on C[C@@H]1CN(c2csc3cc(C(F)(F)F)ccc23)C[C@H](C)N1CCCCNC(=O)c1cccs1 [compound 827037] yielded a Ki [3] of 0.106 µM.
For O=C(N[C@H](CO)CCCN1CCN(c2csc3cc(C(F)(F)F)ccc23)CC1)c1cc2ccc(Cl)cc2s1 [compound 815710], the Ki (Table 2, read-out: D3K1) was 0.21 µM, the Ki (read-out: D3K1) was 0.21 µM and the Ki [2] was 0.21 µM.
O=C(NCCCCN1CCCN(c2csc3cc(F)ccc23)CC1)c1cc(Cl)cc(Cl)c1 [S981848] gave a Ki [1] of 0.0083 µM.
With O=C(NCc1sccc1CN1CCN(c2csc3cc(F)ccc23)CC1)c1cccc2ccccc12 [compound 826299] the Ki [4] was 0.095 µM.
In the case of Cn1c(C(=O)NCCCCCN2CCN(c3csc4cc(C(F)(F)F)ccc34)CC2)cc2ccccc21 [compound 826796], the Ki (read-out: D3K1) is reported as 0.0149 µM and the Ki [2] is reported as 0.0149 µM.
For O=C(NCCCCN1CCN(c2noc3ccsc23)CC1)c1cnc2ccccc2n1 [compound 829688], the Ki [5] was 0.673 µM.
O=C(NCCCCN1CCCN(c2csc3cc(C(F)(F)F)ccc23)CC1)c1cccc2[nH]ccc12 [S980650] gave a Ki [1] of 0.043 µM.
With O=C(NCCCCCN1CCN(c2csc3cc(F)ccc23)CC1)c1cccs1 [compound 826774] the Ki [2] was 0.00825 µM.
Cc1ccc(C(=O)NCC(CO)CCN2CCN(c3csc4cc(C(F)(F)F)ccc34)CC2)cc1 (centres unmarked) [818921ES] was tested, and the Ki (Table 2, read-out: D3K1) was 0.331 µM.
O=C(NCCCCCN1CCCN(c2csc3cc(F)ccc23)CC1)c1cccs1 [S984485] gave a Ki [1] of 0.0316 µM.
Work on CC1=C(C(=O)NCCCCN2CCCN(c3csc4cc(F)ccc34)CC2)Cc2ccccc21 [S977827] yielded a Ki [1] of 0.000987 µM.
Cc1c(C(=O)NCCC(CO)CN2CCN(c3csc4cc(C(F)(F)F)ccc34)CC2)cnn1-c1ccccc1 (centres unmarked) [818634ES] gave a Ki (Table 2, read-out: D3K1) of 0.305 µM.
Work on CCCCCCC(=O)NCCCCCN1CCC(c2noc3ccsc23)CC1 [compound 816202] yielded a Ki [1] of 0.326 µM.
O=C(NCc1sccc1CN1CCN(c2csc3cc(F)ccc23)CC1)c1ccc(-c2ccccc2)cc1 [compound 826308] gave a Ki [4] of 0.206 µM.
In the case of O=C(NC/C=C\CN1CCN(c2csc3cc(C(F)(F)F)ccc23)CC1)c1cc2ccccc2s1 [compound 827709], the Ki (read-out: D3K1) is reported as 0.028 µM.
In the case of O=C(Nc1cccc(CN2CCN(c3csc4cc(F)ccc34)CC2)c1)c1cccnc1Cl [compound 822186], the Ki [6] is reported as 0.0504 µM.
O=C(NCCCCCN1CCN(c2csc3cc(F)ccc23)CC1)c1n[nH]c2ccccc12 [compound 826791] was tested, and the Ki [2] was 0.0119 µM.
O=C(NCCCCN1CCN(c2noc3ccsc23)CC1)c1ccc2[nH]ccc2c1 [compound 829683] was tested, and the Ki [5] was 0.0375 µM.
For O=C(Nc1cccc(CN2CCN(c3csc4cc(F)ccc34)CC2)c1)c1cccc(F)c1 [compound 822164], the Ki [6] was 0.167 µM.
Molecule Cc1ccccc1C(=O)NCCCCN1CCCN(c2csc3cc(F)ccc23)CC1 [compound 822199] has a Ki [1] of 0.0038 µM.
O=C(NC/C=C/CN1CCN(c2csc3cc(C(F)(F)F)ccc23)CC1)c1cccc(F)c1 [compound 827720] gave a Ki (read-out: D3K1) of 0.086 µM.
With O=C(NCC(CO)CCN1CCN(c2csc3cc(C(F)(F)F)ccc23)CC1)c1ccncc1 (centres unmarked) [818940ES] the Ki (Table 2, read-out: D3K1) was 0.307 µM.
COc1ccc(C(=O)NCCCCN2CCN(c3c(Cl)sc4cc(C(F)(F)F)ccc34)CC2)cc1OC [compound 815570] showed a Ki (read-out: D3K1) of 0.03 µM.
In the case of C[C@@H]1CN(c2csc3cc(F)ccc23)C[C@H](C)N1CCCCNC(=O)c1cc2ccccc2s1 [compound 827054], the Ki [3] is reported as 0.0435 µM.
Cc1ccc(C(=O)NCCCCN2C3CCC2CC(c2noc4cc(F)ccc24)C3)cc1 (centres unmarked) [compound 816344] showed a Ki [7] of 0.378 µM.
In the case of CCCCc1ccc(C(=O)N(Cc2ccccc2)CC2CC2CN2CCCN(c3csc4cc(F)ccc34)CC2)cc1 (racemic) [compound 830395], the Ki [8] is reported as 0.0276 µM.
COc1ccc(CNCC2CC2CN2CCN(c3csc4cc(C(F)(F)F)ccc34)CC2)cc1 (racemic) [compound 831909] was tested, and the Ki [9] was 0.0415 µM.
Cc1nc(Cl)c(Cl)n1CCCNC[C@@H]1C[C@H]1CN1CCN(c2csc3cc(C(F)(F)F)ccc23)CC1 [compound 832817] gave a Ki [9] of 0.0365 µM.
Work on O=C(NCCCCCN1CCCN(c2csc3cc(F)ccc23)CC1)c1c[nH]c2ccccc12 [S984507] yielded a Ki [1] of 0.062 µM.
Work on CSc1nsc(SC)c1C(=O)NCCCCN1CCCN(c2csc3cc(C(F)(F)F)ccc23)CC1 [S980661] yielded a Ki [1] of 0.151 µM.
O=C(NCc1sccc1CN1CCN(c2csc3cc(F)ccc23)CC1)c1cccc2cc[nH]c12 [compound 826314] gave a Ki [4] of 0.046 µM.
With O=C(NC/C=C/CN1CCN(c2csc3cc(C(F)(F)F)ccc23)CC1)c1ccccn1 [compound 827713] the Ki (read-out: D3K1) was 0.065 µM.
For O=C(NCC(CO)CCN1CCN(c2csc3cc(C(F)(F)F)ccc23)CC1)c1n[nH]c2ccccc12 (centres unmarked) [818935ES], the Ki (Table 2, read-out: D3K1) was 0.244 µM.
With COc1ccc(C(=O)Nc2cccc(CN3CCN(c4csc5cc(F)ccc45)CC3)c2)cc1OC [compound 822180] the Ki [6] was 0.0265 µM.
O=C(NCCCCN1CCCN(c2csc3cc(F)ccc23)CC1)c1ccc2[nH]cnc2c1 [S977831] was tested, and the Ki [1] was 0.00187 µM.
With O=C(NCC(CO)CCN1CCN(c2csc3cc(C(F)(F)F)ccc23)CC1)c1ccc2ccccc2c1 (centres unmarked) [818929ES] the Ki (Table 2, read-out: D3K1) was 0.201 µM.
With O=C(N[C@@H](CO)CCCN1CCN(c2csc3cc(C(F)(F)F)ccc23)CC1)c1cc2ccccc2o1 [compound 815677] the Ki (Table 2, read-out: D3K1) was 0.297 µM, the Ki (read-out: D3K1) was 0.297 µM and the Ki [2] was 0.297 µM.
For C[C@@H]1CN(c2csc3cc(F)ccc23)C[C@H](C)N1CCCCNC(=O)c1ccncc1 [compound 826947], the Ki [3] was 0.0476 µM.
Molecule COc1ccc(C(=O)NCC2CC2CN2CCCN(c3csc4cc(F)ccc34)CC2)cc1 (racemic) [compound 830405] has a Ki [8] of 0.00165 µM.
Work on O=C(NCC(CO)CCN1CCN(c2csc3cc(C(F)(F)F)ccc23)CC1)c1cccc(C(=O)c2ccccc2)c1 (single isomer, unassigned) [818912ES] yielded a Ki (Table 2, read-out: D3K1) of 0.249 µM.
Cn1cccc1C(=O)NCCCCN1CCCN(c2csc3cc(C(F)(F)F)ccc23)CC1 [S980655] gave a Ki [1] of 0.04 µM.
With O=C(NCCCCN1C2CCC1CC(c1noc3ccccc13)C2)c1cc2ccccc2s1 (centres unmarked) [compound 816535] the Ki [7] was 0.0664 µM.
Molecule O=C(NCCCCN1CCCN(c2csc3cc(F)ccc23)CC1)c1cc2ccccc2o1 [822226G] has a Ki [1] of 0.00082 µM.
With O=C(N[C@H](CO)CCCN1CCN(c2csc3cc(C(F)(F)F)ccc23)CC1)c1cc2ccccc2[nH]1 [compound 815698] the Ki (Table 2, read-out: D3K1) was 0.329 µM, the Ki (read-out: D3K1) was 0.329 µM and the Ki [2] was 0.329 µM.
